Among the data in patent US20120129897A1, “BIS HETEROARYL INHIBITORS OF PRO-MATRIX METALLOPROTEINASE ACTIVATION” (priority 2010, published 2012) are IC50 and Kd values, retold here.

What is called IC50 is the point on the concentration scale where inhibition reaches its midpoint. A low value points to greater potency in that assay. The term Kd denotes the equilibrium constant for the complex coming apart. High values mean lower affinity, low ones higher affinity.

SMILES strings stand for the structures. Structures can show the parent of a compound that is named as a salt. Some results are limits rather than exact numbers.

The target in test [1] is T1, full-length proMMP9(1-707) (SEQ ID NO:1) (Homo sapiens, UniProt P14780, R574P).
T1 construct: made in house; host or cells: HEK293 (proMMP9, secreted); E. coli (MMP3)
T1 sequence (P14780 20-707 R574P): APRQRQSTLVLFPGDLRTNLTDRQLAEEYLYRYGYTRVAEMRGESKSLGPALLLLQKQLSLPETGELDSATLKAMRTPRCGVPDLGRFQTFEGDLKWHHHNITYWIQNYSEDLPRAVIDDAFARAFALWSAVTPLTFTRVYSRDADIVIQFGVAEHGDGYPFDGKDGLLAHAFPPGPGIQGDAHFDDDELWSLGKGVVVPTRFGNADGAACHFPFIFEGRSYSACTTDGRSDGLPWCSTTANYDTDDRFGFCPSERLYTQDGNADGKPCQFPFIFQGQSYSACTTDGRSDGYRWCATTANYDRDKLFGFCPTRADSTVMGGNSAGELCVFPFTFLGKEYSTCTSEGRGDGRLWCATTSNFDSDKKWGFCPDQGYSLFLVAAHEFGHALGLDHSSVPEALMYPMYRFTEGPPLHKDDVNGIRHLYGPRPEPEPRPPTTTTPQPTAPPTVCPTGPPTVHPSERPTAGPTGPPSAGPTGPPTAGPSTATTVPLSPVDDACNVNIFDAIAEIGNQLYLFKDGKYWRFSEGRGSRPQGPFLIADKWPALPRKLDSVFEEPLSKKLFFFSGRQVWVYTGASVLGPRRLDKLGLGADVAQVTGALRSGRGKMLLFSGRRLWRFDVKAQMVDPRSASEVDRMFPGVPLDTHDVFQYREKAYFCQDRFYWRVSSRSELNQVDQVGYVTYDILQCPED
Kind of test: proMMP9/MMP3 P126 Activation Assay. The test is classed as biochemical. The following applies: 20 nM proMMP9, 20 nM MMP3, 80 min 37° C. The procedure: The reaction volume was 50 μL. […] Reactivity of residual MMP3 towards P-126 substrate was minimal under these conditions.

Test [2] addresses T2, proMMP9(67-444;ΔFnII) (SEQ ID NO:5) (Homo sapiens, UniProt P14780, DEL216-390).
T2 construct: start methionine (N); made in house; host or cells: E. coli BL21(DE3) RIL
T2 sequence (P14780 with tags, fused parts or gaps DEL216-390): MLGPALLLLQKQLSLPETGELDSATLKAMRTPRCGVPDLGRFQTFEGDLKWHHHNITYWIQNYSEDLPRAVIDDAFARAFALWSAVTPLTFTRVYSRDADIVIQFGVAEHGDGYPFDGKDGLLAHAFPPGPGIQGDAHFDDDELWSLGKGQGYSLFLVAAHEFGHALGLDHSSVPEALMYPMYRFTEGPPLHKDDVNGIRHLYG
Kind of test: ThermoFluor binding assay with proMMP9(67-444;ΔFnII). The procedure: (§1) The ThermoFluor® (TF) assay is a 384-well plate-based binding assay that measures thermal stability of proteins (Biomol Screen 2001, 6, 429-40; Biochemistry 2005, 44, 5258-66). The experiments were carried out using instruments available from Johnson & Johnson Pharmaceutical Research & Development, LLC. TF dye used in all experiments was […] (1,8-ANS) (Invitrogen: A-47).
(§2) Compounds were arranged in a pre-dispensed plate (Greiner Bio-one: 781280), wherein compounds were serially diluted in 100% DMSO across 11 columns within a series. Columns 12 and 24 were used as DMSO reference and contained no compound. For multiple compound concentration-response experiments, the compound aliquots ([…]) were robotically predispensed directly into black 384-well polypropylene PCR microplates (Abgene: TF-0384/k) using a Cartesian Hummingbird liquid handler (DigiLab, Holliston, Mass.). Following compound dispense, protein and dye solutions were added to achieve the final assay volume of 3 μL. The assay solutions were overlayed with 1 μL of silicone oil (Fluka, type DC 200: 85411) to prevent evaporation.
(§3) Assay plates were robotically loaded onto a thermostatically controlled PCR-type thermal block and then heated from 40 to 90° C. at a ramp-rate of 1° C./min for all experiments. Fluorescence was measured by continuous illumination with UV light (Hamamatsu LC6) supplied via fiber optics and filtered through a band-pass filter (380-400 nm; >60D cutoff). Fluorescence emission of the entire 384-well plate was detected by measuring light intensity using a CCD camera (Sensys, Roper Scientific) filtered to detect 500±25 nm, resulting in simultaneous and independent readings of all 384 wells. A single image with 20-sec exposure time was collected at each temperature, and the sum of the pixel intensity in a given area of the assay plate was recorded vs temperature and fit to standard equations to yield the Tm (J Biomol Screen 2001, 6, 429-40).
(§4) Thermodynamic parameters necessary for fitting compound binding for each proMMP were estimated by differential scanning calorimetry (DSC) and from ThermoFluor® data. The heat capacity of unfolding for each protein was estimated from the molecular weight and from ThermoFluor® dosing data.
The protein sample preparations had to include a desalting buffer exchange step via a PD-10 gravity column (GE Healthcare). The desalting buffer exchange was performed prior to diluting the protein to the final assay concentration of 3.5 μM proMMP9(67-444;ΔFnII) (SEQ ID NO:5). The concentration of proMMP9(67-444;ΔFnII) (SEQ ID NO:5) was determined spectrophotometrically based on a calculated extinction coefficient of ε280=33900 M^−1cm^−1, a calculated molecular weight of 22.6 kDa, and calculated pI of 5.20. ThermoFluor® reference conditions were defined as follows: 80 μg/mL (3.5 μM) proMMP9(67-444;ΔFnII) (SEQ ID NO:5), 50 μM 1,8-ANS, pH 7.0 Buffer (50 mM HEPES pH 7.0, 100 mM NaCl, 0.001% Tween-20, 2.5 mM MgCl2, 300 μM CaCl2). The thermodynamic parameters for proMMP9(67-444;ΔFnII) (SEQ ID NO:5) are as follows: Tm (° C.)=63 (+/−0.1), ΔUH(Tm) (cal mol^−1)=105000(+/−5000), ΔUS(Tm) (cal mol^−1 K^−1)=[…], ΔUCp (cal mol^−1 K^−1)=2000.
In general terms: In DSF a fluorescence change marks the thermal transition of the protein.

Test [3] deals with T3, proMMP13(1-268) (SEQ ID NO:7) (Homo sapiens, UniProt P45452). Kind of test: ThermoFluor binding assay with proMMP13(1-268). The arrangement: 6x-histidine (C); made in house. The procedure:
as §1, §2, §3, §4
The proMMP13(1-268) (SEQ ID NO:7) protein sample preparations included a desalting buffer exchange step via a PD-10 gravity column (GE Healthcare). The desalting buffer exchange was performed prior to diluting the protein to the final assay concentration of 3.5 μM. The concentration of proMMP13(1-268) (SEQ ID NO:7) was estimated spectrophotometrically based on a calculated extinction coefficient of ε280=37000 M^−1cm^−1, a calculated molecular weight of 30.8 kDa, and calculated pI of 5.33. ThermoFluor® reference conditions were defined as follows: 100 μg/mL proMMP13(1-268) (SEQ ID NO:7), 25 μM 1,8-ANS, pH 7.0 Buffer (50 mM HEPES pH 7.0, 100 mM NaCl, 0.001% Tween-20, 2.5 mM MgCl2, 300 μM CaCl2). The thermodynamic parameters for proMMP13(1-268) (SEQ ID NO:7) are as follows: Tm (° C.)=67 (+/−0.1), ΔUH(Tm) (cal mol^−1)=107000(+/−5000), ΔUS(Tm) (cal mol^−1 K^−1)=318, ΔUCp (cal mol^−1 K^−1)=2600.

The target of test [4] is T4, proMMP9(20-445;ΔFnII) (SEQ ID NO:6) (Homo sapiens, UniProt P14780, DEL216-390).
T4 construct: start methionine (N); made in house; host or cells: E. coli BL21(DE3) RIL
T4 sequence (P14780 with tags, fused parts or gaps DEL216-390): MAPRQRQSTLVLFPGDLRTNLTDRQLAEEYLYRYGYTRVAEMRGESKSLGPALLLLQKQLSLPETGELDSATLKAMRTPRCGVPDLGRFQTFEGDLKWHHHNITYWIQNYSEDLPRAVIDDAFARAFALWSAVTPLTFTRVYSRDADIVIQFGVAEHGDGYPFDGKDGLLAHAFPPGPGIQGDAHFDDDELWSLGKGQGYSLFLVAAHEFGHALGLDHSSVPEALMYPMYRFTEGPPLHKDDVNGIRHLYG
Kind of test: ThermoFluor binding assay with proMMP9(20-445;ΔFnII). The procedure: as §1, §2, §3, §4
The protein sample preparations included a desalting buffer exchange step via a PD-10 gravity column (GE Healthcare). The desalting buffer exchange was performed prior to diluting the protein to the final assay concentration of 2.8 μM proMMP9(20-445;ΔFnII) (SEQ ID NO:6). The concentration of proMMP9(20-445;ΔFnII) (SEQ ID NO:6) was determined spectrophotometrically based on a calculated extinction coefficient of ε280=39880 M^−1cm^−1, a calculated molecular weight of 28.2 kDa, and calculated pI of 5.5. ThermoFluor® reference conditions were define as follows: 80 μg/mL (2.8 μM) proMMP9(20-445;ΔFnII) (SEQ ID NO:6), 50 μM 1,8-ANS, pH 7.0 Buffer (50 mM HEPES pH 7.0, 100 mM NaCl, 0.001% Tween-20, 2.5 mM MgCl2, 300 μM CaCl2). The thermodynamic parameters for proMMP9(20-445;ΔFnII) (SEQ ID NO:6) are as follows: Tm (° C.)=72 (+/−0.1), ΔUH(Tm) (cal mol^−1)=160000(+/−5000), ΔUS(Tm) (cal mol^−1 K^−1)=434, ΔUCp ([…])=2400.

Test [5] has as its target T3, proMMP13(1-268) (SEQ ID NO:7). Kind of test: ProMMP13/Plasmin P126 Activation Assay. The test is classed as biochemical. The arrangement: 6x-histidine (C); made in house; host or cells: HEK293 (transient transfection, secreted). The note with it: 8 nM proMMP13, 16 nM plasmin, 40 min 37° C. The procedure:
On the day of assay, proMMP13(1-268) (SEQ ID NO:7) purified from HEK293 cells and plasmin were diluted to 160 nM and 320 nM, respectively, in assay buffer. The reaction volume was 50 μL. […] The plate was sealed and incubated for 40 min at 37° C. […] Plasmin was not reactive towards P-126 substrate under these conditions.

With `Cc1nc(C)n(C)c1-c1csc(Nc2cc(S(N)(=O)=O)ccc2OC(C)C)n1` [Example 1, 4-Isopropoxy-3-[4-(2,3,5-trimethyl-3H-imidazol-4-yl)-thiazol-2-ylamino]-benzenesulfonamide], the IC50 in test [1] came to 2.3 µM. Moreover, the Kd in test [2] was 8.6 µM; in test [3] it was 1.6 µM; in test [4], 4.7 µM.
For the compound `Cc1nc(-c2csc(Nc3cc(S(N)(=O)=O)ccc3OC(C)C)n2)c(C)n1C` [Example 2, 4-Isopropoxy-3-[4-(1,2,5-trimethyl-1H-imidazol-4-yl)-thiazol-2-ylamino]-benzenesulfonamide.TFA], in test [1], the IC50 was ~6 µM. The Kd in test [2] is 33.2 µM; in test [3], 10 µM; in test [4], 12 µM.
In test [1], `Cc1nc(-c2csc(Nc3cc(C(N)=O)ccc3OC(C)C)n2)c(C)[nH]1` [Example 3, 3-[4-(2,5-Dimethyl-1H-imidazol-4-yl)-thiazol-2-ylamino]-4-isopropoxy-benzamide.TFA] returned an IC50 of 0.79 µM. Moreover, the Kd in test [2] is > 95 µM; in test [3], 5.1 µM; in test [4], 4.8 µM.
Taken in the same sequence, the figures for `CCOc1ccc(C#N)cc1Nc1nc(-n2cc(C)nc2C)cs1` [Example 4, 3-[4-(2,4-Dimethyl-imidazol-1-yl)-thiazol-2-ylamino]-4-ethoxy-benzonitrile] were ~5 µM, 36 µM, > 95 µM and 76 µM.
Take `CCOc1ccc(C#N)cc1Nc1nc(-c2cnn(C)c2)cs1` [Example 5, 4-Ethoxy-3-[4-(1-methyl-1H-pyrazol-4-yl)-thiazol-2-ylamino]-benzonitrile]: the dissociation constant (Kd) in test [2] was 14 µM; in test [3], 17 µM; in test [4] it was 8.9 µM.
Regarding `Cc1nc(C)c(-c2csc(Nc3cc(C(N)=O)ccc3OC(C)C)n2)o1` [Example 6, 3-[4-(2,4-Dimethyl-oxazol-5-yl)-thiazol-2-ylamino]-4-isopropoxy-benzamide], the IC50 in test [1] was 0.27 µM; in test [5], 6 µM. The Kd in test [2] came to 7.2 µM; in test [3], 6.1 µM; in test [4], 0.17 µM.
As for `Cc1nc(C)n(C)c1-c1csc(Nc2cc(C(N)=O)ccc2OC(C)C)n1` [Example 7, 4-Isopropoxy-3-[4-(2,3,5-trimethyl-3H-imidazol-4-yl)-thiazol-2-ylamino]-benzamide.TFA], in test [1], the IC50 came to 1.9 µM. The Kd in test [2] is 42 µM; in test [4], 5.9 µM.
